Measurements from US8940286B2, “Urate transporter, as well as method and kit for evaluating urate transport-related disease factor and inflammation-related disease factor, and test sample and drug” (The University of Tokyo, priority 2009, dated 2015).
Where a name gives a salt, the structure may show the parent alone.

T1: ABCG2 (Homo sapiens, UniProt Q9UNQ0)
T1 sequence (Q9UNQ0 1-655): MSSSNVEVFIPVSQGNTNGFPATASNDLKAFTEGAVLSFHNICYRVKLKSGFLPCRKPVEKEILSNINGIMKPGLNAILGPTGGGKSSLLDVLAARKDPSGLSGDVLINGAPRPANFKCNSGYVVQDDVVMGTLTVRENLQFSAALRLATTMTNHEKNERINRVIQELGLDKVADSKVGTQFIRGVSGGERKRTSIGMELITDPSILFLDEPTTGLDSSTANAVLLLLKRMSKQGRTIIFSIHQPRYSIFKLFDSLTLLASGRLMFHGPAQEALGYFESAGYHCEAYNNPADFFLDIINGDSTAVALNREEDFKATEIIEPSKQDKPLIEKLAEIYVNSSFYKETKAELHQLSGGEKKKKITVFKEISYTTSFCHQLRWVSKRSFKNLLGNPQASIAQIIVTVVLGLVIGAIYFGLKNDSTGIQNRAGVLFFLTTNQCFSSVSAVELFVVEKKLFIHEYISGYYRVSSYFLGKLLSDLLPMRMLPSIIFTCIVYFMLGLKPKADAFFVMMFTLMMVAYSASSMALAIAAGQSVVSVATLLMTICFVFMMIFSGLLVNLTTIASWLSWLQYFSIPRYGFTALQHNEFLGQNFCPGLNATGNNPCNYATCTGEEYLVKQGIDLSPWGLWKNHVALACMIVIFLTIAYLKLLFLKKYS

T2: mouse Abcg2 (Mus musculus, UniProt Q7TMS5)
T2 construct: expressed in transfected cells; host or cells: HEK293 (transient transfection, myc-mAbcg2/pcDNA3.1(+)); cell membrane vesicles
T2 sequence (Q7TMS5 1-657): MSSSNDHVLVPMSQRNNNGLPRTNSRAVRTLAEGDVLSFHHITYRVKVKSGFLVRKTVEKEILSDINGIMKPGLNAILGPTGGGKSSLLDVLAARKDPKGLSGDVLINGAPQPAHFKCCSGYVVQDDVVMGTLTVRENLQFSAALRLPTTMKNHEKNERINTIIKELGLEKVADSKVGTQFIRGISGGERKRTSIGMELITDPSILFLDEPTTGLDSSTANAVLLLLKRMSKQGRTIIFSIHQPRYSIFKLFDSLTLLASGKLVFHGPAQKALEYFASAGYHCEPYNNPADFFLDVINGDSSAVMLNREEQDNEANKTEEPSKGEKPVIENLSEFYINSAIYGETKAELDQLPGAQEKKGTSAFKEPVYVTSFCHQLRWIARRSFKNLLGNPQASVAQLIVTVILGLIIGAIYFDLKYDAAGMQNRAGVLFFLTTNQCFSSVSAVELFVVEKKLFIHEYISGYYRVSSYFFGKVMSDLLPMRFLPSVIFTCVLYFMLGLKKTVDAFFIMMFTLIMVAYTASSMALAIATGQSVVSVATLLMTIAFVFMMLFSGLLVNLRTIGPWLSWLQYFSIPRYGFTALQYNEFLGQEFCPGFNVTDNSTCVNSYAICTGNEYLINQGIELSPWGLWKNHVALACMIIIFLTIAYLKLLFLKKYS


Legend:
[1] = target: T1, ABCG2; settings: typical ABCG2 substrates, low capacity; read-out: Km value of transport by ABCG2; cited from earlier work
[2] = target: T1, ABCG2; experiment: inhibition of ABCG2-mediated [3H]estrone-3-sulfate transport in membrane vesicles; settings: [3H]ES 500 nM, vesicle transport assay, HEK293 membrane vesicles
Description: Wild-type ABCG2 cDNA was inserted into the Nhe I site and Apa I site of pcDNA3.1(+) vector plasmid (Invitrogen, Carlsbad, Calif.), with a myc-tag sequence attached at the 5′ end. To prepare membrane vesicles, HEK293 cells were transiently transfected with an expression vector for ABCG2 or an empty vector using FuGENE6 (Roche Diagnostics, Indianapolis, Ind.). Forty-eight hours later, cells were harvested and the membrane vesicles were isolated using a standard method. The uptake study of [^3H]estrone-3-sulfate (ES, 500 nM) and [^14C]urate (28 μM) was performed.
Using membrane vesicles prepared from ABCG2-expressing cells, the inhibitory effect of urate on ABCG2-mediated transport of its typical substrate, ES (estrone-3-sulfate) was examined.
The inhibitory effect on the transport of [^3H]estrone-3-sulfate (ES, 500 nM), a typical substrate of ABCG2 was examined using the vesicle transport assay system.

[3] = target: T2, mouse Abcg2; experiment: [14C]urate transport in mouse Abcg2-expressing membrane vesicles; format: biochemical; settings: uric acid 250 μM to 4 mM, cell membrane vesicles
Description: A mouse Abcg2 expression vector was constructed by amplifying a cDNA of mouse Abcg2 with a myc tag sequence attached to the N-terminus, integrating it into pGEM T-Easy Vector (Promega, Madison, Wis.), and then integrating it into a Not I site of a pcDNA3.1(+) vector via a restriction enzyme treatment.
Also, in order to confirm whether or not the mouse Abcg2 transports urate in the same manner as in human ABCG2, HEK293 cells into which the mouse myc-Abcg2 expression vector was transiently introduced were recovered, and cell membrane vesicles were prepared.
Transport experiments were performed using cell membrane vesicles and using radioisotope-labeled uric acid as a substrate. As a result, it was confirmed that the mouse Abcg2 also transports uric acid in the same manner as in human ABCG2. Also, transport experiments were performed in uric acid concentrations of 250 μM, 500 μM, 1 mM, 1.5 mM, 2 mM, and 4 mM, respectively. […] Whereby, it was shown that mouse Abcg2 is a high-capacity urate transporter which can function even in the presence of a high concentration of uric acid.

[4] = substrate: O=c1[nH]c(=O)c2[nH]c(=O)[nH]c2[nH]1; experiment: ATP-dependent [14C]urate transport in ABCG2-expressing membrane vesicles; format: biochemical, human; settings: other: membrane vesicles from ABCG2-expressing HEK293 cells
Method: As shown in FIG. 3 (A), an ATP-dependent urate transport was detected in ABCG2-expressing vesicles but not in control vesicles. This is the first evidence of a direct high-capacity urate transport via ABCG2. Because of a mild inhibitory effect on the ES transport, urate was assumed to be a high-capacity substrate of ABCG2. Indeed, as shown in FIG. 3 (B), ABCG2-mediated urate transport scarcely reached saturation at concentrations of 1 mM or less.
Typical ABCG2 substrates, e.g., sulfate conjugates such as ES, 4-methylumbelliferone sulfate, and E3040 sulfate, are transported by ABCG2 with low capacity (Km value of about 20 μM).

Molecule	inhibitory effect on the transport of [3H]estrone-3-sulfate [2]	Km [1]	further results
Cc1cc(=O)oc2cc(OS(=O)(=O)O)ccc12 [4-methylumbelliferone sulfate]	–	~20 µM	–
CNc1nc2c(Cc3cccnc3)c(C)c(OS(=O)(=O)O)c(C)c2s1 [E3040 sulfate]	–	~20 µM	–
O=c1[nH]c(=O)c2[nH]c(=O)[nH]c2[nH]1 [urate]	–	–	saturability of urate transport via mouse Abcg2 [3]: no saturability
ABCG2 (Homo sapiens) (protein, expressed in transfected cells; host or cells: HEK293 (transient transfection, pcDNA3.1(+)); isolated membrane vesicles) MSSSNVEVFIPVSQGNTNGFPATASNDLKAFTEGAVLSFHNICYRVKLKSGFLPCRKPVEKEILSNINGIMKPGLNAILGPTGGGKSSLLDVLAARKDPSGLSGDVLINGAPRPANFKCNSGYVVQDDVVMGTLTVRENLQFSAALRLATTMTNHEKNERINRVIQELGLDKVADSKVGTQFIRGVSGGERKRTSIGMELITDPSILFLDEPTTGLDSSTANAVLLLLKRMSKQGRTIIFSIHQPRYSIFKLFDSLTLLASGRLMFHGPAQEALGYFESAGYHCEAYNNPADFFLDIINGDSTAVALNREEDFKATEIIEPSKQDKPLIEKLAEIYVNSSFYKETKAELHQLSGGEKKKKITVFKEISYTTSFCHQLRWVSKRSFKNLLGNPQASIAQIIVTVVLGLVIGAIYFGLKNDSTGIQNRAGVLFFLTTNQCFSSVSAVELFVVEKKLFIHEYISGYYRVSSYFLGKLLSDLLPMRMLPSIIFTCIVYFMLGLKPKADAFFVMMFTLMMVAYSASSMALAIAAGQSVVSVATLLMTICFVFMMIFSGLLVNLTTIASWLSWLQYFSIPRYGFTALQHNEFLGQNFCPGLNATGNNPCNYATCTGEEYLVKQGIDLSPWGLWKNHVALACMIVIFLTIAYLKLLFLKKYS	–	–	Km [4]: 8240 ± 1440 µM; Vmax [4]: 6.96 ± 0.89 nmol/min/mg (protein)

The next lines start with results.

inhibitory effect on the transport of [3H]estrone-3-sulfate [2]	Molecule	Km [1]	further results
inhibition	Cc1cn([C@H]2C[C@H](N=[N+]=[N-])[C@@H](CO)O2)c(=O)[nH]c1=O [AZT, 3′-azido-3′-deoxythymidine]	–	–
inhibition	C[C@]12CC[C@@H]3c4ccc(OS(=O)(=O)O)cc4CC[C@H]3[C@@H]1CCC2=O [ES, estrone-3-sulfate]	~20 µM	–
